The record followed here is PubChem BioAssay (NCI).

Test in all cases: DTP human tumour cell line panel, 48 h
For assay [1], the system named is EKVX NSCLC.
Assay [2] deals with HCC-2998 colon.
Assay [3] relates to MALME-3M melanoma.
In assay [4] the test system is MDA-MB-231 breast.
Assay [5] deals with NCI-H460 lung.
The test system of assay [6] is SF-268 CNS.
The test system of assay [7] is SN12C renal.
Assay [8] concerns SNB-75 CNS.
Assay [9] concerns UACC-257 melanoma.
Assay [10] relates to UACC-62 melanoma.

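Tested at 5 concentrations; 48 h exposure; 96-well plates; endpoints linearly interpolated, else capped at highest concentration. TGI marks complete inhibition of growth.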

`[N-]=[N+]=NC(c1ccccc1)(c1ccccc1)c1ccccc1`: the TGI (as a rule, the concentration at which net growth stops) was 27.8 µM in assay [1]; 30.5 µM in assay [2]; 29.5 µM in [3]; 31.2 µM in assay [4]; 33 µM in assay [5]; 35.7 µM in assay [6]. Further, the TGI in assay [7] amounted to 30.9 µM; in assay [8] it was 34.4 µM; in assay [9] it was 31.4 µM; in assay [10] it was 31.4 µM.

`O=C(C1OC1c1ccc(Br)cc1O)C12CC3CC(CC(C3)C1)C2` (stereo not given): the TGI was over 100 µM in assay [1]; 47.6 µM in assay [2]; 42.1 µM in assay [3]; 43.6 µM in [4]; 85.2 µM in [5]; over 100 µM in assay [6]. Besides, the total growth inhibition concentration (TGI) is 30.1 µM in assay [7], 58.1 µM in [8], over 100 µM in assay [9] and 40.6 µM in [10].

`O=C(/C=C/c1ccccc1)C[C@@H](O)C[C@@H]1CC=CC(=O)O1`: the TGI worked out at 73.1 µM in assay [1]; 15.7 µM in assay [2]; 30.6 µM in [3]; 27.5 µM in assay [4]; 39.5 µM in [5]; 27.7 µM in [6]. For the same compound, the TGI in assay [7] was 25.2 µM; in [8], over 53.7 µM; in assay [9], 31.1 µM; in assay [10], 14.5 µM.

Regarding `CC(C)c1cc2c(cc1S(=O)(=O)O)[C@@]1(C)CCC[C@@](C)(C(=O)O)C1CC2` (stereo not given in full), the total growth inhibition concentration (TGI) in [1], in [2], in assay [3], in [4], in assay [5] and in assay [6] was over 100 µM in each case. Besides, the TGI in assay [7], in assay [8], in assay [9] and in [10] was over 100 µM throughout.

Take `Cc1ccc(-c2csc(=Nc3ccccc3)n2NC(=O)c2ccncc2)cc1`: the TGI in assay [1], in [2], in [3], in assay [4], in assay [5] and in assay [6] was over 100 µM in each case. In addition, the TGI in assay [7] is over 100 µM; in assay [8], over 88.2 µM; in [9], over 100 µM; in assay [10], 70.6 µM.

As to `Cc1oc2c(cc(O)c3cc(O)ccc32)c2cccc1-2`, the concentration for total growth inhibition (TGI) in assay [1], in assay [2], in assay [3], in assay [4], in assay [5] and in [6] was over 100 µM each time. The TGI in [7], in [8], in assay [9] and in assay [10] was over 100 µM each time.

With `O=C(NCc1ccccc1)c1n[nH][nH]c1=O`, the TGI in [1], in assay [2], in [3], in [4], in [5] and in [6] was over 100 µM throughout. Also, the TGI in assay [7], in assay [8], in assay [9] and in assay [10] was over 100 µM throughout.

As for `CCC(=O)NCC1CCCN2CCCCC12` (stereo not given), the TGI in assay [1], in assay [2], in assay [3], in assay [4], in assay [5] and in assay [6] was over 100 µM in each case. Besides, the TGI in [7], in assay [8], in [9] and in assay [10] was over 100 µM in each case.

Take `Cc1ccc(NC(=O)c2ccc(OP(=O)(O)Nc3ccc(C)cc3)cc2)cc1`: the TGI in [1], in assay [2], in assay [3], in assay [4], in assay [5] and in assay [6] was over 100 µM each time. Further, the TGI in assay [7], in assay [8], in assay [9] and in assay [10] was over 100 µM in each case.

As for `Cc1cc(Nc2ccc(S(=O)(=O)O)c3cc(S(=O)(=O)O)cc(S(=O)(=O)O)c23)c2ccccc2n1`, the TGI in [1], in [2], in assay [3], in [4], in [5] and in [6] was over 100 µM each time. Moreover, the TGI in assay [7], in [8], in [9] and in assay [10] was over 100 µM in each case.

With `Cn1c(=O)c2c(nc3n2CC(C(=O)O)N3)n(C)c1=O` (stereo not given), the TGI in assay [1], in assay [2], in [3], in assay [4], in assay [5] and in assay [6] was over 100 µM throughout. Besides, the TGI in assay [7], in assay [8], in [9] and in assay [10] was over 100 µM throughout.
